According to patent US9174964B2, “AMPK-activating piperidinyloxy-substituted 2,3-dihydro-1H-indene-1-amine compounds and pharmaceutical compositions including the same” (Rigel Pharmaceuticals, Inc., priority 2007, dated 2015):
Counter-ions that a name gives are not always drawn.

biological target: AMPK; experiment: AMPK activation, enzyme-linked immunosorbent assay; type: biochemical; details: Table 2, AMPK activation, ELISA

| SMILES | EC50 [nM] |
| --- | --- |
| CC(C)(C)OC(=O)N1CC[C@H](NC(=O)c2ccc(OC3CCN(c4ccc(C(F)(F)F)cc4)CC3)cn2)C1 [Compound 26, (S)-tert-butyl 3-(5-(1-(4-(trifluoromethyl)phenyl)piperidin-4-yloxy)picolinamido) pyrrolidine-1-carboxylate] | 100 to 500 |
| N#Cc1ccc(N2CCC(Oc3ccc(C(=O)NC4CCN(Cc5ccncc5)CC4)nc3)CC2)cc1 [Compound 1, 5-(1-(4-cyanophenyl)piperidin-4-yloxy)-N-(1-(pyridin-4-ylmethyl)piperidin-4-yl)picolinamide] | 100 to 500 |
| COC(=O)c1ccc(CN2CCC(NC(=O)c3ccc(OC4CCN(c5ccc(C(F)(F)F)cc5)CC4)nc3)CC2)cc1 [Compound 45, methyl 4-((4-(6-(1-(4-(trifluoromethyl)phenyl)piperidin-4-yloxy)nicotinamido)piperidin-1-yl)methyl)benzoate] | > 10000 |
| O=C(NC1CCN(Cc2ccc(F)cc2)CC1)c1cncc(OC2CCN(c3ccc(C(F)(F)F)cc3)CC2)c1 [Compound 16, N-(1-(4-fluorobenzyl)piperidin-4-yl)-5-(1-(4-(trifluoromethyl)phenyl)piperidin-4-yloxy)nicotinamide] | < 100 |
| O=C(N[C@@H]1CCNC1)c1ccc(OC2CCN(c3ccc(C(F)(F)F)cc3)CC2)cn1 [Compound 24, (R)-N-(pyrrolidin-3-yl)-5-(1-(4-(trifluoromethyl)phenyl)piperidin-4-yloxy)picolinamide] | 5000 to 10000 |
| O=C(N[C@H]1CCN(Cc2ccc(F)cc2)C1)c1ccc(OC2CCN(c3ccc(C(F)(F)F)cc3)CC2)cn1 [Compound 32, (S)-N-(1-(4-fluorobenzyl)pyrrolidin-3-yl)-5-(1-(4-(trifluoromethyl)phenyl)piperidin-4-yloxy)picolinamide] | 100 to 500 |
| N#Cc1ccc(CN2CCC(NC(=O)c3cc(OC4CCN(c5ccc(C(F)(F)F)cc5)CC4)ccn3)CC2)cc1 [Compound 28, N-(1-(4-cyanobenzyl)piperidin-4-yl)-4-(1-(4-(trifluoromethyl)phenyl)piperidin-4-yloxy)picolinamide] | < 100 |

The remaining lines, values ahead:

| EC50 [nM] | SMILES |
| --- | --- |
| 500 to 1000 | N#Cc1ccc(CN2CC[C@@H](NC(=O)c3ccc(OC4CCN(c5ccc(C(F)(F)F)cc5)CC4)cn3)C2)cc1 [Compound 33, (R)-N-(1-(4-cyanobenzyl)pyrrolidin-3-yl)-5-(1-(4-(trifluoromethyl)phenyl)piperidin-4-yloxy)picolinamide] |
| 1000 to 5000 | CC(C)(C)OC(=O)N1CCC(NC(=O)c2ccnc(OC3CCN(c4ccc(C(F)(F)F)cc4)CC3)c2)CC1 [Compound 15, tert-butyl 4-(2-(1-(4-(trifluoromethyl)phenyl)piperidin-4-yloxy)isonicotinamido) piperidine-1-carboxylate] |
| 100 to 500 | N#Cc1ccc(CN2CCC(NC(=O)c3ccnc(OC4CCN(c5ccc(C(F)(F)F)cc5)CC4)c3)CC2)cc1 [Compound 21, N-(1-(4-cyanobenzyl)piperidin-4-yl)-2-(1-(4-(trifluoromethyl)phenyl)piperidin-4-yloxy)isonicotinamide] |
| < 100 | N#Cc1ccc(CN2CC[C@H](NC(=O)c3ccc(OC4CCN(c5ccc(C(F)(F)F)cc5)CC4)cn3)C2)cc1 [Compound 31, (S)-N-(1-(4-cyanobenzyl)pyrrolidin-3-yl)-5-(1-(4-(trifluoromethyl)phenyl)piperidin-4-yloxy)picolinamide] |
| 1000 to 5000 | O=C(O)c1ccc(CN2CCC(NC(=O)c3ccc(OC4CCN(c5ccc(C(F)(F)F)cc5)CC4)nc3)CC2)cc1 [Compound 46, 4-((4-(6-(1-(4-(trifluoromethyl)phenyl)piperidin-4-yloxy)nicotinamido)piperidin-1-yl)methyl)benzoic acid] |

same assay, conditions: Table 3, AMPK activation, ELISA

| EC50 [nM] | SMILES |
| --- | --- |
| < 100 | O=S(=O)(NC1CCN(Cc2ccc(C(F)(F)F)cc2)CC1)c1ccc(OC2CCN(c3ccc(C(F)(F)F)cc3)CC2)nc1 [Compound 58, N-(1-(4-(trifluoromethyl)benzyl)piperidin-4-yl)-6-(1-(4-(trifluoromethyl)phenyl)piperidin-4-yloxy)pyridine-3-sulfonamide] |
| 1000 to 5000 | CC(C)(C)OC(=O)N1CCC(NS(=O)(=O)c2ccc(OC3CCN(c4ccc(C(F)(F)F)cc4)CC3)nc2)CC1 [Compound 54, tert-butyl 4-(6-(1-(4-(trifluoromethyl)phenyl)piperidin-4-yloxy)pyridine-3-sulfonamido)piperidine-1-carboxylate] |
| 5000 to 50000 | N#Cc1ccc(CN2CCC(NS(=O)(=O)c3ccc(OC4CCN(c5ccc(C(F)(F)F)cc5)CC4)nc3)CC2)cc1 [Compound 56, N-(1-(4-cyanobenzyl)piperidin-4-yl)-6-(1-(4-(trifluoromethyl)phenyl)piperidin-4-yloxy)pyridine-3-sulfonamide] |

same assay, conditions: Table 4, AMPK activation, ELISA

| SMILES | EC50 [nM] |
| --- | --- |
| N#Cc1ccccc1CN1CCC(NC(=O)c2cc3ccc(OC4CCN(c5ccc(C(F)(F)F)cc5)CC4)cc3o2)CC1 [Compound 98, N-(1-(2-cyanobenzyl)piperidin-4-yl)-6-(1-(4-(trifluoromethyl)phenyl)piperidin-4-yloxy)benzofuran-2-carboxamide] | < 100 |
| O=C(NC1CCN(C(=O)c2ccncc2)CC1)c1cc2ccc(OC3CCN(c4ccc(C(F)(F)F)cc4)CC3)cc2o1 [Compound 112, N-(1-isonicotinoylpiperidin-4-yl)-6-(1-(4-(trifluoromethyl)phenyl)piperidin-4-yloxy)benzofuran-2-carboxamide] | < 100 |
| O=C(NC1CCN(Cc2ccncc2)CC1)c1cc2cc(OC3CCN(c4ccc(OC(F)(F)F)cc4)CC3)ccc2o1 [Compound 78, N-(1-(pyridin-4-ylmethyl)piperidin-4-yl)-5-(1-(4-(trifluoromethoxy)phenyl)piperidin-4-yloxy)benzofuran-2-carboxamide trifluoroacetate salt] | < 100 |
| CC(C)(C)OC(=O)N1CC[C@H](NC(=O)c2cc3cc(OC4CCN(Cc5ccc(Cl)cc5)CC4)ccc3o2)C1 [Compound 127, (S)-tert-butyl 3-(5-(1-(4-chlorobenzyl)piperidin-4-yloxy)benzofuran-2-carboxamido)pyrrolidine-1-carboxylate] | 1000 to 10000 |
| N#Cc1ccc(CN2CCC(Oc3ccc4oc(C(=O)NC5CCN(Cc6ccncc6)CC5)cc4c3)CC2)cc1 [Compound 79, 5-(1-(4-cyanobenzyl)piperidin-4-yloxy)-N-(1-(pyridin-4-ylmethyl)piperidin-4-yl)benzofuran-2-carboxamide] | 100 to 500 |
| O=C(NC1CCN(Cc2ccncc2)CC1)c1cc2cc(OC3CCN(Cc4ccc(Cl)cc4)CC3)ccc2o1 [Compound 77, 5-(1-(4-chlorobenzyl)piperidin-4-yloxy)-N-(1-(pyridin-4-ylmethyl)piperidin-4-yl)benzofuran-2-carboxamide] | 100 to 500 |
| Cc1c(C(=O)NC2CCN(Cc3ccccn3)CC2)oc2cc(OC3CCN(c4ccc(C(F)(F)F)cc4)CC3)ccc12 [Compound 68, 3-methyl-N-(1-(pyridin-2-ylmethyl)piperidin-4-yl)-6-(1-(4-(trifluoromethyl)phenyl)piperidin-4-yloxy)benzofuran-2-carboxamide] | < 100 |
| CN(C(=O)c1cc2cc(OC3CCN(c4ccc(C(F)(F)F)cc4)CC3)ccc2o1)C1CCN(C(=O)OC(C)(C)C)CC1 [Compound 102, tert-butyl 4-(N-methyl-5-(1-(4-(trifluoromethyl)phenyl)piperidin-4-yloxy)benzofuran-2-carboxamido)piperidine-1-carboxylate] | 1000 to 10000 |
| O=C(NC1CCN(Cc2ccc(C(F)(F)F)cc2)CC1)c1cc2ccc(OC3CCN(c4ccc(C(F)(F)F)cc4)CC3)cc2o1 [Compound 99, N-(1-(4-(trifluoromethyl)benzyl)piperidin-4-yl)-6-(1-(4-(trifluoromethyl)phenyl)piperidin-4-yloxy)benzofuran-2-carboxamide] | < 100 |

More lines, now with the values ahead:

| EC50 [nM] | SMILES |
| --- | --- |
| 1000 to 10000 | O=C(N[C@@H]1CCN(Cc2ccccn2)C1)c1cc2cc(OC3CCN(c4ccc(C(F)(F)F)cc4)CC3)ccc2o1 [Compound 124, (R)-N-(1-(pyridin-2-ylmethyl)pyrrolidin-3-yl)-5-(1-(4-(trifluoromethyl)phenyl)piperidin-4-yloxy)benzofuran-2-carboxamide] |
| > 50000 | O=C(N[C@H]1CCNC1)c1cc2cc(OC3CCN(Cc4ccc(Cl)cc4)CC3)ccc2o1 [Compound 128, (S)-5-(1-(4-chlorobenzyl)piperidin-4-yloxy)-N-(pyrrolidin-3-yl)benzofuran-2-carboxamide] |
| 500 to 1000 | O=C(NC1CCN(Cc2ccccn2)CC1)c1cc2ccc(OC3CCN(c4ccc(OC(F)(F)F)cc4)CC3)cc2o1 [Compound 92, N-(1-(pyridin-2-ylmethyl)piperidin-4-yl)-6-(1-(4-(trifluoromethoxy)phenyl)piperidin-4-yloxy)benzofuran-2-carboxamide] |
| 500 to 1000 | O=C(NC1CCN(Cc2ccccc2)CC1)c1cc2cc(OC3CCN(Cc4cccc(C(F)(F)F)c4)CC3)ccc2o1 [Compound 73, N-(1-benzylpiperidin-4-yl)-5-(1-(3-(trifluoromethyl)benzyl)piperidin-4-yloxy)benzofuran-2-carboxamide] |
| < 100 | O=C(NC1CCN(Cc2ccncc2)CC1)c1cc2ccc(OC3CCN(c4ccc(C(F)(F)F)cc4)CC3)cc2o1 [Compound 87, N-(1-(pyridin-4-ylmethyl)piperidin-4-yl)-6-(1-(4-(trifluoromethyl)phenyl)piperidin-4-yloxy)benzofuran-2-carboxamide] |

same assay, conditions: Table 5, AMPK activation, ELISA

| EC50 [nM] | SMILES |
| --- | --- |
| < 100 | O=C(NC1CCN(Cc2ccncc2)CC1)c1cc2cc(OC3CCN(Cc4ccc(Cl)cc4)CC3)ccc2s1 [Compound 139, formate salt] |
| 100 to 500 | N#Cc1ccccc1CN1CCC(NC(=O)c2cc3ccc(OC4CCN(c5ccc(C(F)(F)F)cc5)CC4)cc3s2)CC1 [Compound 146, N-(1-(2-cyanobenzyl)piperidin-4-yl)-6-(1-(4-(trifluoromethyl)phenyl)piperidin-4-yloxy)benzo[b]thiophene-2-carboxamide] |
| 100 to 500 | N#Cc1cccc(CN2CCC(NC(=O)c3cc4ccc(OC5CCN(c6ccc(C(F)(F)F)cc6)CC5)cc4s3)CC2)c1 [Compound 145, N-(1-(3-cyanobenzyl)piperidin-4-yl)-6-(1-(4-(trifluoromethyl)phenyl)piperidin-4-yloxy)benzo[b]thiophene-2-carboxamide] |
